Legend:
Type in all cases: in vivo
[1] = system: green peach aphid (Myzus persicae); assay: Myzus test (spray treatment) (Example B); details: sprayed Chinese cabbage discs
Experimental: Myzus Test (Spray Treatment)
(§1) • Solvents: 78 parts by weight of acetone • 1.5 parts by weight of dimethylformamide • Emulsifier: 0.5 part by weight of alkylaryl polyglycol ether
To produce a suitable preparation of active compound, 1 part by weight of active compound is mixed with the stated amounts of solvent and emulsifier, and the concentrate is diluted with emulsifier-containing water to the desired concentration.
Discs of Chinese cabbage (Brassica pekinensis) which are infested by all stages of the green peach aphid (Myzus persicae) are sprayed with a preparation of active compound of the desired concentration.
After the desired period of time, the activity in % is determined. 100% means that all aphids have been killed; 0% means that none of the aphids have been killed.

[2] = system: larvae of the mustard beetle (Phaedon cochleariae); assay: Phaedon test (spray treatment) (Example C); details: sprayed Chinese cabbage discs
Experimental: Phaedon Test (Spray Treatment)
as §1
(§2) To produce a suitable preparation of active compound, 1 part by weight of active compound is mixed with the stated amounts of solvents and emulsifier, and the concentrate is diluted with emulsifier-containing water to the desired concentration.
After the desired period of time, the activity in % is determined. 100% means that all beetle larvae have been killed; 0% means that none of the beetle larvae have been killed.

[3] = system: caterpillars of the army worm (Spodoptera frugiperda); assay: Spodoptera frugiperda test (spray treatment) (Example D); details: sprayed maize leaf discs
Experimental: Spodoptera Frugiperda Test (Spray Treatment)
as §1, §2
Discs of maize leaves (Zea mays) are sprayed with a preparation of active compound of the desired concentration and, after they have dried, populated with caterpillars of the army worm (Spodoptera frugiperda).
After the desired period of time, the activity in % is determined. 100% means that all caterpillars have been killed; 0% means that none of the caterpillars have been killed.

[4] = system: greenhouse red spider mite (Tetranychus urticae); assay: Tetranychus test (OP-resistance/spray treatment) (Example E); details: sprayed bean leaf discs
Experimental: Tetranychus Test (OP-resistance/Spray Treatment)
as §1
To prepare a suitable preparation of active compound, 1 part by weight of active compound is mixed with the stated amounts of solvents and emulsifier, and the concentrate is diluted with emulsifier-containing water to the desired concentration.
Discs of bean leaves (Phaseolus vulgaris) which are infested by all stages of the greenhouse red spider mite (Tetranychus urticae) are sprayed with a preparation of active compound of the desired concentration.
After the desired period of time, the activity in % is determined. 100% means that all spider mites have been killed; 0% means that none of the spider mites have been killed.

[5] = system: monocotyledonous and dicotyledonous weed and crop plants (cereals); assay: Herbicidal post-emergence action, use of safeners, container trials with cereals in the greenhouse (Example I); details: without safener
Experimental: (§3) Herbicidal Post-emergence Action
Seeds of monocotyledonous and dicotyledonous weed and crop plants are placed into sandy loam in wood fibre pots or in plastic pots, covered with soil and cultivated in a greenhouse, during the vegetation period also outdoors outside of the greenhouse, under good growth conditions. 2-3 weeks after sowing, the test plants are treated at the one- to three-leaf stage. The test compounds, formulated as wettable powders (WP), or emulsifiable concentrates (EC), are, in various dosages with a water application rate of 300 l/ha (converted), with wetting agent (0.2 to 0.3%) added, sprayed onto the plants and the surface of the soil. 3-4 weeks after the treatment of the test plants, the effect of the preparations is rated visually in comparison to untreated controls (herbicidal effect in precent (%): 100% effect=the plants have died, 0% effect=like control plants).
If it is additionally to be tested whether safeners can improve the plant compatibility of test substances in the case of the crop plants, the following option is used for applying the safener: • seeds of the crop plants are, before sowing, dressed with the safener substance (the amount of safener is stated in percent, based on the weight of seed) • before the application of the test substances, the crop plants are sprayed with the safener at a certain application rate per hectare (usually 1 day before the application of the test substances) • the safener is applied together with the test substance as a tank mix (the amount of safener is stated in g/ha or as a ratio, based on the herbicide).
By comparing the effect of test substances on crop plants without or with safener treatment, it is possible to assess the effect of the safener substance.

[6] = system: Meloidogyne incognita; assay: Meloidogyne test (Example A); details: 20 ppm active compound; nematicidal action by formation of galls on lettuce roots; 100% = no galls
Experimental: • Solvent: 7 parts by weight of dimethylformamide • Emulsifier: 2 parts by weight of alkylaryl polyglycol ether
To produce a suitable preparation of active compound, 1 part by weight of active compound is mixed with the stated amounts of solvent and emulsifier, and the concentrate is diluted with water to the desired concentration.
Containers are filled with sand, solution of active compound, Meloidogyne incognita egg/larvae suspension and lettuce seeds. The lettuce seeds germinate and the plants develop. On the roots, galls are formed.
After the desired period of time, the nematicidal action is determined in % by the formation of galls. 100% means that no galls were found; 0% means that the number of galls on the treated plants corresponds to that of the untreated control.

[7] = system: monocotyledonous and dicotyledonous weed and crop plants; assay: Herbicidal post-emergence action (Example H); details: greenhouse, 320 g of a.i./ha
Experimental: as §3
Seeds of monocotyledonous and dicotyledonous weed and crop plants are placed into sandy loam in wood fibre pots, covered with soil and cultivated in a greenhouse under good growth conditions. 2-3 weeks after sowing, the test plants are treated at the one-leaf stage. The test compounds, formulated as wettable powders (WP), are, in various dosages with a water application rate of 600 l/ha (converted), with 0.2% of wetting agent added, sprayed onto the green parts of the plants. After the test plants were kept in a greenhouse under optimum growth conditions for about 3 weeks, the effect of the preparations is rated visually in comparison to untreated controls (herbicidal effect in percent (%): 100% effect=the plants have died, 0% effect=like control plants).

[8] = system: monocotyledonous and dicotyledonous weed and crop plants; assay: Herbicidal pre-emergence action (Example G); details: greenhouse, 320 g of a.i./ha
Description: Herbicidal Pre-emergence Action
Seeds of monocotyledonous and dicotyledonous weed and crop plants are placed into sandy loam in wood fibre pots and covered with soil. The test compounds, formulated in the form of wettable powders (WP), are then, in various dosages as aqueous suspension with a water application rate of 600 l/ha (converted), with 0.2% of wetting agent added, applied to the surface of the covering soil. After the treatment, the pots are placed in a greenhouse and kept under good growth conditions for the test plants. The visual assessment of the emergence damage on the test plants is carried out after a trial period of 3 weeks by comparison with untreated controls (herbicidal effect in percent (%): 100% effect=the plants have died, 0% effect=like control plants).

## Cc1ccc(-c2ccc(F)cc2)cc1C1(Cl)C(=O)N2CCCCN2C1=O [Ex. I-1-1]
[1]; 100 g/ha
  Kill rate in % after 5d: 100%
[2]; 100 g/ha
  Kill rate in % after 7d: 100%

## Cc1ccc(-c2ccccc2F)cc1C1(Cl)C(=O)N2CCCCN2C1=O [Ex. I-1-7]
[1]; 500 g/ha
  Kill rate in % after 5d: 90%
[2]; 500 g/ha
  Kill rate in % after 7d: 100%

## Cc1ccc(-c2cccc(F)c2)cc1C1(Cl)C(=O)N2CCCCN2C1=O [Ex. I-1-8]
[3]; 500 g/ha
  Kill rate in % after 7d: 100%
[4]; 500 g/ha
  Kill rate in % after 5d: 100%

## Cc1ccc(-c2ccc(Cl)cc2Cl)cc1C1(Cl)C(=O)N2CCCCN2C1=O [Ex. I-1-13]
[1]; 500 g/ha
  Kill rate in % after 5d: 90%
[4]; 500 g/ha
  Kill rate in % after 5d: 100%

## Cc1ccc(-c2ccc(F)cc2F)cc1C1(Cl)C(=O)N2CCCCN2C1=O [Ex. I-1-17]
[1]; 500 g/ha
  Kill rate in % after 5d: 90%
[2]; 500 g/ha
  Kill rate in % after 7d: 100%

## COc1ccc(Cl)cc1-c1ccc(C)c(C2(Cl)C(=O)N3CCCCN3C2=O)c1 [Ex. I-1-34]
[1]; 500 g/ha
  Kill rate in % after 5d: 100%

## Cc1ccc(-c2cccc(F)c2)cc1C1(Cl)C(=O)N2CCOCCN2C1=O [Ex. I-2-6]
[1]; 500 g/ha
  Kill rate in % after 5d: 90%
[2]; 500 g/ha
  Kill rate in % after 7d: 100%

## Cc1ccc(-c2ccc(F)cc2)cc1C1(Cl)C(=O)N2CCOCCN2C1=O [Ex. I-2-7]
[3]; 100 g/ha
  Kill rate in % after 7d: 100%
[4]; 100 g/ha
  Kill rate in % after 5d: 90%

## Cc1ccc(-c2ccc(F)cc2F)cc1C1(Cl)C(=O)N2CCOCCN2C1=O [Ex. I-2-16]
[3]; 500 g/ha
  Kill rate in % after 7d: 100%
[1]; 500 g/ha
  Kill rate in % after 5d: 100%

## Cc1ccc(-c2ccc(F)c(Cl)c2)cc1C1(Cl)C(=O)N2CCOCCN2C1=O [Ex. I-2-18]
[3]; 500 g/ha
  Kill rate in % after 7d: 100%
[1]; 500 g/ha
  Kill rate in % after 5d: 90%

## COc1ccc(Cl)c(-c2ccc(C)c(C3(Cl)C(=O)N4CCOCCN4C3=O)c2)c1 [Ex. I-2-23]
[1]; 500 g/ha
  Kill rate in % after 5d: 100%

## Cc1ccc(-c2ccc(Oc3ccccc3)cc2)cc1C1(Cl)C(=O)N2CCOCCN2C1=O [Ex. I-2-29]
[1]; 500 g/ha
  Kill rate in % after 5d: 100%

## COc1ccc(-c2ccc(C)c(C3(Cl)C(=O)N4CCOCCN4C3=O)c2)cc1Cl [Ex. I-2-35]
[1]; 500 g/ha
  Kill rate in % after 5d: 100%

## Cc1cc(-c2ccc(Cl)cc2)cc(C)c1C1(Cl)C(=O)N2CCCCN2C1=O [Ex. I-3-1]
[5]; 50 g of a.i./ha
  Summer barley observed (%): 80%
  Summer wheat observed (%): 60%
[5]; 100 g of a.i./ha
  Summer barley observed (%): 80%
  Summer wheat observed (%): 60%
[6]
  Effect in % after 14d: 100%

## Cc1cc(-c2ccc(Cl)cc2)cc(C)c1C1(Cl)C(=O)N2CCOCCN2C1=O [Ex. I-4-1]
[7]; Alopecurus
  herbicidal effect, Alopecurus: 80%
[7]; Digitaria
  herbicidal effect, Digitaria: 100%
[7]; Lolium
  herbicidal effect, Lolium: 80%
[7]; Setaria
  herbicidal effect, Setaria: 100%
[7]; Sugarbeets
  herbicidal effect, Sugarbeets: 10%
[8]; Echinochloea
  herbicidal effect, Echinochloea: 70%
[8]; Setaria
  herbicidal effect, Setaria: 80%
[8]; Sorghum
  herbicidal effect, Sorghum: 70%
[8]; Soybeans
  herbicidal effect, Soybeans: 0%
[8]; Wheat
  herbicidal effect, Wheat: 0%
[5]; 25 g of a.i./ha
  Summer barley observed (%): 40%
  Summer wheat observed (%): 60%
[5]; 50 g of a.i./ha
  Summer barley observed (%): 95%
  Summer wheat observed (%): 97%
[5]; 100 g of a.i./ha
  Summer barley observed (%): 97%
  Summer wheat observed (%): 97%
[4]; 100 g/ha
  Kill rate in % after 5d: 90%
